Assay results reported in publication PMC10744333, “New Perspective for Using Antimicrobial and Cell-Penetrating Peptides to Increase Efficacy of Antineoplastic 5-FU in Cancer Cells” (Journal of Functional Biomaterials, 2023).
Like-named read-outs stand apart in the source and are kept apart here. Where a SMILES comes first, the peptide text is derived from it.

Tests used:
[1] = test system: UM-UC-5 urothelial bladder cancer cell lines; assay: tissue or blood; type: cell-based; settings: 48 h
Description: (§1) A549 adenocarcinomic human alveolar basal epithelial cells, UM-UC-5 urothelial bladder cancer cell lines, and MRC-5 human normal lung fibroblast cells (all from ATCC, American Type Culture Collection, Manassas, VA, USA) were cultured in Dulbecco’s Modified Eagle Medium (DMEM) medium (Gibco®, Grand Island, NY, USA), supplemented with 10% fetal bovine serum (FBS, Gibco®, Grand Island, NY, USA) and 1% (v/v) penicillin/streptomycin (Sigma-Aldrich®, Steinheim, Germany), maintained at 37 °C and 95% humidified air in a 5% CO2 environment. Cells were cultured in monolayers in T25 cm^2 flasks (ThermoScientific®, Waltham, MA, USA) and cell media were replaced every 2–3 days. At 80% confluency, cells were subcultured. For the subculture process, 0.25% trypsin-ethylenediaminetetraacetic acid (EDTA, Sigma-Aldrich®, Steinheim, Germany), was added.
(§2) The potential of the antineoplastic drug 5-FU, five cationic antimicrobial peptides (CAMPs), and two cell-penetrating peptides (CPPs) was analyzed in UM-UC-5 and A549 cell lines. Cells were treated with drugs in concentrations ranging from 0.1 to 100 μM (for 5-FU) and 0.1 to 50 μM (for CAMPs and CPPs) for 48 h, and cell survival was evaluated using the MTT assay. […] IC50 values > 100 μM were not considered.
(§3) The cell viability was measured using the MTT (Thiazolyl blue tetrazolium bromide; cat. no. M5655; Sigma-Aldrich; Merck KGaA, Darmstadt, Germany) assay in 96-well plates. For the protocol, 5 × 10^3 cells in 200 µL of medium were grown per well for 24 h at 37 °C. Then, cells were treated with CAMPs and CPPs in the following concentrations: 0.1, 1.0, 5.0, 10, 25, and 50 µM. […] The controls were treated with 0.1% H2O and 0.1% DMSO (vehicles). After incubation for 48 h at 37 °C, cell media were aspirated and 100 µL of MTT solution (0.5 mg/mL in PBS) was added to each well. After incubation for 3 h at 37 °C protected from light, MTT solution was removed from each well and 100 µL of DMSO was added to each well to solubilize the formazan crystals. Absorbance was measured on a Tecan Infinite M200 plate reader (Tecan Group Ltd., Männedorf, Switzerland) at 570 nm. The cell viability was calculated relative to the absorbance of carrier controls. Average values were obtained by performing three independent cell viability assays (n = 3).

[2] = test system: A549 adenocarcinomic human alveolar basal epithelial cells; type: cell-based; settings: 48 h
Description: as §1, §2, §3

[3] = UM-UC-5 cells, MTT, n = 3, read-out: IC50
[4] = A549 cells, MTT, n = 3, read-out: IC50

| Compound | IC50 [1, 3] [µM] | IC50 [2, 4] [µM] | IC50 [1] [µM] | IC50 [2] [µM] |
| --- | --- | --- | --- | --- |
| CC[C@H](C)[C@H](NC(=O)[C@@H](NC(=O)[C@@H](NC(=O)[C@H](CCCNC(=N)N)NC(=O)[C@H](CCCNC(=N)N)NC(=O)[C@H](CCC(N)=O)NC(=O)[C@H](CCCNC(=N)N)NC(=O)/C=C/c1ccccc1)C(C)C)C(C)C)C(=O)N[C@@H](Cc1c[nH]c2ccccc12)C(=O)N[C@@H](Cc1c[nH]c2ccccc12)C(N)=O [CPP2] (HELM PEPTIDE1{[O=C(/C=C/c1ccccc1)[*:2]].R.Q.R.R.V.V.I.W.W.[am]}$$$$V2.0) | 5.47 | > 100 | – | – |
| O=c1[nH]cc(F)c(=O)[nH]1 [Peptide 5-FU, 5-fluorouracil, reference compound] | 4.21 | – | – | – |
| Ac-CLLIILRRRIRKQAHAHSK-NH2 [CPP4] | – | – | > 100 | > 100 |
| H-RIRRWKFRW-NH2 [CAMP5] | > 100 | 19.7 | – | – |
| H-RLWWWWRRR-NH2 [CAMP3] | – | – | > 100 | 17.6 |
| H-RQRRVVIWW-NH2 [CAMP7] | > 100 | > 100 | – | – |
| H-WKWLKKWIK-NH2 [CAMP1] | > 100 | 12.4 | – | – |
| H-WRKFWKYLK-NH2 [CAMP2] | 21.6 | 5.77 | – | – |
